Drawing on ChEMBL document CHEMBL1137657, “Identification of 16S rRNA methylase-producing Acinetobacter baumannii clinical strains in North America” (2007), this text covers Activity and MIC for three compounds.

The subject of test [1] is Acinetobacter baumannii. Description: Antimicrobial activity against colistin-resistant Acinetobacter baumannii 213 transconjugant with 16S rRNA methylase armA gene expressing Acinetobacter baumannii isolate D. Format: functional, organism-based.
For test [2], the system named is Acinetobacter baumannii. Description: Antimicrobial activity against colistin-resistant Acinetobacter baumannii 213 transconjugant with 16S rRNA methylase armA gene expressing Acinetobacter baumannii isolate E. Format: functional, organism-based.
Test [3] relates to Acinetobacter baumannii. Briefly: Antibacterial activity against Acinetobacter baumannii isolate A expressing 16S rRNA methylase armA gene. The test is classed as functional.
Test [4] has as its system Acinetobacter baumannii. Description: Antibacterial activity against Acinetobacter baumannii isolate B expressing 16S rRNA methylase armA gene. The test is classed as functional.
The test system of test [5] is Acinetobacter baumannii. Description: Antibacterial activity against Acinetobacter baumannii isolate C expressing 16S rRNA methylase armA gene. Format: functional.
Test [6] relates to Acinetobacter baumannii. Description: Antibacterial activity against Acinetobacter baumannii isolate D expressing 16S rRNA methylase armA gene. The test is classed as functional.
In test [7] the test system is Acinetobacter baumannii. Briefly: Antibacterial activity against Acinetobacter baumannii isolate E expressing 16S rRNA methylase armA gene. Format: functional.
Test [8] relates to Escherichia coli. Briefly: Antibacterial activity against Escherichia coli DH10B expressing Acinetobacter baumannii isolate B 16S rRNA methylase armA gene. Conditions: K-12 substr. DH10B. Format: functional.
For test [9], the system named is Acinetobacter baumannii. Description: Antibacterial activity against armA knockout Acinetobacter baumannii 231. Format: functional, organism-based.
Test [10] deals with Escherichia coli. Briefly: Antimicrobial activity against azide-resistant Escherichia coli J53 transconjugant with 16S rRNA methylase armA gene expressing Acinetobacter baumannii isolate A. The test is classed as functional, organism-based.
In test [11] the test system is Escherichia coli. Description: Antimicrobial activity against azide-resistant Escherichia coli J53 transconjugant with 16S rRNA methylase armA gene expressing Acinetobacter baumannii isolate B. Format: functional, organism-based.
The subject of test [12] is Escherichia coli. Briefly: Antimicrobial activity against azide-resistant Escherichia coli J53 transconjugant with 16S rRNA methylase armA gene expressing Acinetobacter baumannii isolate C. Format: functional, organism-based.
The subject of test [13] is Escherichia coli. Description: Antimicrobial activity against azide-resistant Escherichia coli J53 transconjugant with 16S rRNA methylase armA gene expressing Acinetobacter baumannii isolate D. The test is classed as functional, organism-based.
Test [14] deals with Escherichia coli. Description: Antimicrobial activity against azide-resistant Escherichia coli J53 transconjugant with 16S rRNA methylase armA gene expressing Acinetobacter baumannii isolate E. Format: functional, organism-based.
The subject of test [15] is Acinetobacter baumannii. Briefly: Antimicrobial activity against colistin-resistant Acinetobacter baumannii 213 transconjugant with 16S rRNA methylase armA gene expressing Acinetobacter baumannii isolate A. Format: functional, organism-based.
Test [16] has as its system Acinetobacter baumannii. Briefly: Antimicrobial activity against colistin-resistant Acinetobacter baumannii 213 transconjugant with 16S rRNA methylase armA gene expressing Acinetobacter baumannii isolate B. The test is classed as functional, organism-based.
Test [17] concerns Acinetobacter baumannii. Briefly: Antimicrobial activity against colistin-resistant Acinetobacter baumannii 213 transconjugant with 16S rRNA methylase armA gene expressing Acinetobacter baumannii isolate C. The test is classed as functional, organism-based.

The source made the active and inactive calls. No cut-off for these calls is given here. Where only a bound is given, the exact number is not on record here.

With `NCC[C@H](O)C(=O)N[C@@H]1C[C@H](N)[C@@H](O[C@H]2O[C@H](CN)[C@@H](O)[C@H](O)[C@H]2O)[C@H](O)[C@H]1O[C@H]1O[C@H](CO)[C@@H](O)[C@H](N)[C@H]1O` [AMIKACIN], the result in test [1], in [2], in [9], in test [10], in [11] and in test [12] was Active. Besides, the result in test [13], in [14], in [15], in test [16] and in [17] was Active. In addition, the MIC (in general, the lowest concentration that inhibits growth of the organism) in test [3] was > 512 µg/mL; in test [4], > 512 µg/mL; in [5] it was > 512 µg/mL; in test [6], > 512 µg/mL; in test [7], > 512 µg/mL; in test [8], ≥ 256 µg/mL.
Consider `NC[C@H]1O[C@H](O[C@H]2[C@H](O)[C@@H](O[C@H]3O[C@H](CO)[C@@H](O)[C@H](N)[C@H]3O)[C@H](N)C[C@@H]2N)[C@H](N)C[C@@H]1O` [TOBRAMYCIN], for which the MIC was > 512 µg/mL in test [3]; > 512 µg/mL in [4]; > 512 µg/mL in test [5]; > 512 µg/mL in test [6]; > 512 µg/mL in test [7]; ≥ 256 µg/mL in test [8].
With GENTAMICIN, the MIC in test [3] was > 512 µg/mL; in [4], > 512 µg/mL; in test [5], > 512 µg/mL; in [6] it was > 512 µg/mL; in test [7], > 512 µg/mL; in [8], > 256 µg/mL.
